Measurements taken from patent publication US7524487B2, “Compositions and methods for modulating interleukin-10” (University of Maryland, priority 2005, dated 2009).

How the values were obtained:
[1] = test system: IL-10 promoter; assay: DNase I accessibility of the IL-10 promoter (nucleosome −2) by QRT-PCR; type: cell-based, mice; settings: BMMφ pre-treated with PD98059 15 μM for 1 hour, IC plus LPS 10 ng/mL for 60 min
Description: FIG. 23 are graphs showing enhanced chromatin accessibility following ERK activation. (A) BMMφ were stimulated with IC plus LPS (10 ng/mL) for 0, 15, 30, 60, and 120 min. Nuclei were isolated at each time point post-stimulation and treated with or without MNase. DNA was purified and analyzed for the presence of sequences corresponding to nucleosomes −2 and −12 by QRT-PCR. The data were graphically plotted as percentage of MNase accessibility relative to the samples of stimulation at zero time point. (B) BMMφwere pre-treated with PD98059 (15 μM) (open bars) or drug vehicle control (solid bars) for 1 hour and then stimulated with IC plus LPS (10 ng/mL) for 60 min. Nuclei were isolated from each group and treated with or without DNase I followed by extraction of genomic DNA. […] The data were expressed as percentage of DNase I accessibility relative to undigested genomic DNA sample and graphically plotted for each treated group. […]
DNase I sensitivity assayed by Real-time PCR. DNase I accessibility was determined as previously described (Goriely, et al. 2003. Blood 101:4894-4902; Rao, et al. 2001. J. Immunol. 167:4494-4503.) with minor modifications. […]
MNase accessibility assay was performed on cells grown in 100-mm tissue culture dishes that were stimulated with LPS/IC. […] DNase I accessibility was determined as previously described (Lucas, M., X. Zhang, et al. 2005. J. Immunol. 175:469).

[2] = test system: Sp1; assay: EMSA of Sp1 binding to the IL-10 promoter motif, nuclear extracts of BMMφ; type: cell-based, mice; settings: BMMφ stimulated with LPS 10 ng/ml or LPS+E-IgG for 30 min
Description: A. Cells were stimulated with LPS (10 ng/ml) or LPS+E-IgG for 30 min and nuclear extracts were analyzed by EMSA using Sp1 (A) or STAT3 (B) specific probes. C. RAW264.7 cells were stimulated with medium (open bar), E-IgG (dotted bar), LPS (solid bar) or LPS+E-IgG (striped bar) and cytokines measured by ELISA after 6 h. Data represents the mean of triplicate samples±SD. D. RAW264.7 cells were transfected with pRL-IL10-luciferase reporter plasmid (5 ug/ml) and 24 h later stimulated with medium (con), 10 ng/ml LPS (solid bar) or E-IgG+LPS (striped bar) for 4 h. Cells were then lysed and luciferase activity measured. This figure is representative of 3 experiments.
Electrophoretic mobility shift assay (EMSA). Nuclear extracts were prepared from 2×10^7 Mφ using the Nuclear Extraction kit (Panomics, Redwood City, Calif.) following the manufactures protocol. EMSAs were carried out using the EMSA “Gel-Shift” kit (Panomics, Redwood City, Calif.). Briefly, 5 μg of nuclear extract were incubated with biotin-Sp1 or STAT3 probe±unlabelled probe for 30 min at 20° C., and then run on a 6% polyacrylamide gel. Oligo/protein complexes were transferred to Biodyne B membrane (Pall, Ann Arbor, Mich.). Following transfer, membranes were incubated with streptavidin-HRP and protein visualized by chemiluminescence.

[3] = test system: bone marrow derived macrophages (BMMφ); assay: Cytokine ELISA on supernatants of stimulated bone marrow derived macrophages (LPS ± E-IgG)

COc1cccc(-c2cc(=O)c3ccccc3o2)c1N [PD98059]
reduction of sensitivity to DNase I at nucleosome −2 [1]: greater than half
Sp1 binding to the IL-10 promoter (EMSA) [2]: no effect
IL-10 secretion (ELISA) ([3]; BMMφ pretreated 30 min with PD98059 10 μM, SB203580 1 μM or JNK inhibitory peptide 1 μM, then LPS 10 ng/ml ± E-IgG, supernatants after 20 h): substantial inhibition
IL-12 (p40) production (ELISA) ([3]; BMMφ pretreated 30 min with inhibitor, then LPS 10 ng/ml ± E-IgG, 20 h): actually increased
superinduction (augmentation) of IL-10 production caused by immune complexes ([3]; BMMφ, LPS 10 ng/ml + E-IgG versus LPS alone, 20 h, inhibitor pretreatment or 100 nM siRNA): appeared to prevent
